Legend:
human RBC = experiment: Anti-inflammatory activity: hypotonic solution-induced human RBC hemolysis (560 nm); format: cell-based; details: for IC50: induced human RBC hemolysis, read-out: Inflammatory IC50±SD
Experimental: All synthesized compounds are validated in human RBC (blood sample); the blood sample was collected from a healthy volunteer in an EDTA tube. The EDTA tube further proceeded with centrifugation at 3000 rpm for 30 min. A supernatant (which contains plasma and leucocytes) solution was isolated, and the obtained RBC (red blood cells) was further treated with Alsever’s reagent. Alsever’s reagent was prepared as follows: sodium citrate (0.8 g, 2.6 mmol), dextrose (2 g, 11.0 mmol), citric acid (0.050 g, […]), and sodium chloride (0.42 g, 7.0 mmol) were solubilized in 100 mL of distilled water. The above mixture was centrifuged for 30 min at 3000 rpm. Then, colloidal blood cells were separated, carefully transferred, and washed with 0.85% of the isosaline solution; this process continued until a clear solution appeared. Employing coagulated RBC and generated human erythrocyte hemolysis, the anti-inflammatory activity and potential of the synthesized entities were evaluated. The tested compounds are prepared at different concentrations for the inhibition activity of inflammation, along with 100 µL of a purified RBC sample utilized. All characterized samples were followed by adding 5.0 mL of trisodium phosphate (10 mM) and 5.0 mL of sodium chloride (5.0 mM) buffer solutions. After the addition of the above mixtures, the test samples are incubated for 15 min at room temperature with RBC and hypotonic mixtures. After incubation, the mixture was centrifuged at 3000 rpm for 15 min. The final supernatant liquid solution was measured at 560 nm using a UV-visible spectrophotometer.3 [drawing 3]

[1] = DPPH radical scavenging (517 nm); details: for IC50: read-out: DPPH IC50±SD
Experimental: (§1) The experimental method principle relies on the degradation of the purple color of the DPPH radical and the blue color reduction of the ABTS cation radical. This is due to consuming the electron or hydrogen radical from the antioxidant (A-H). Both assays were measured at 517 nm and 734 nm, respectively. The distinction of color changes illustrates the potential scavenging activity of the inhibitor molecules in terms of hydrogen-donating proficiency. From this, we can conclude the anti-oxidant efficacy.
Methanolic DPPH solution (0.15 mM) was prepared, and 1.0 mL of DPPH solution was mixed with 3.0 mL of synthesized molecules at different concentrations (20 µM to 100 µM). The mixture was constantly swirled and stored RT for 30 min, followed by absorbance measurement at 517 nm.

[2] = ABTS cation radical scavenging (734 nm); details: for IC50: read-out: ABTS IC50±SD
Experimental: as §1
In brief, 7.0 mM ABTS in H2O and 2.5 mM potassium persulfate (1:1) were shaken well to generate ABTS cation radicals and kept in the dark at RT for 15–20 h before it is used for the experiment. After, the radical was mixed with the synthesized molecules at different concentrations (20 µM to 100 µM). The resultant solution was measured for absorbance at 734 nm. Ascorbic acid is the positive control for this experiment.1 [drawing 1]

α-amylase (EC.3.2.1.1) = target: T1, α-amylase (EC.3.2.1.1) (Homo sapiens, UniProt P04746); experiment: In vitro α-amylase inhibition (starch/DNS, 540 nm); format: biochemical; details: for IC50: test concentrations 2-10 µg, read-out: α-Amylase IC50±SD (converted)
T1 sequence (P04746 16-511): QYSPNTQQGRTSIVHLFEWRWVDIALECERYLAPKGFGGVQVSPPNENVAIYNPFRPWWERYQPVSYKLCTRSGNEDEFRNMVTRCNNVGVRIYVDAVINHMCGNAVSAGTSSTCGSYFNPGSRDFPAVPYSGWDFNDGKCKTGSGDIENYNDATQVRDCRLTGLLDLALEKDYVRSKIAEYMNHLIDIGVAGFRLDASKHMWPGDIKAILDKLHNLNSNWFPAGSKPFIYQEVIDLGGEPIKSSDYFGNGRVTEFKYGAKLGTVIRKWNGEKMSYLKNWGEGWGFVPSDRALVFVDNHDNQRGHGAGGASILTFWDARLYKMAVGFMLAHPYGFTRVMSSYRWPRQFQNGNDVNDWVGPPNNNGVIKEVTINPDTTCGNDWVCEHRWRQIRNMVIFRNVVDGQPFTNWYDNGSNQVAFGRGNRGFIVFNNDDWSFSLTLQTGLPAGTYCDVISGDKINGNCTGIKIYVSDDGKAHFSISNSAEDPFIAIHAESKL
Experimental: α-Amylase enzyme and other chemical reagents are used for enzyme inhibitory activity. The characterized compounds are diluted in an analytical grad solvent (DMSO) system at 1 mg/mL solution concentration. The activity reaction of the synthesized analogues on the enzyme was treated at final concentrations of 2 to 10 µg. In the interaction between enzyme and compounds, 10 min incubation was maintained before the inhibitory activity started. The enzyme-receptor inhibition efficiency was calculated and compared with the positive control.
Sodium phosphate buffer 0.2 mM (pH 6.9 with 6 × 10^− 4 M NaCl) in 500 µL enzyme solution (0.5 mg/mL) was taken and incubated with test samples (2–10 µg/mL) at room temperature for 10 min. A starch (1%) solution of 500 µL with phosphate buffer was added to all test inhibitor samples; further, the tubes were incubated for 10 min at 28 °C. The reaction test tubes were incubated for another 5 min in the water bath (100 °C) after the addition of the color reagent dinitro salicylic acid and cooled at room temperature until reached. Finally, 10 mL of distilled water was mixed with each test tube, and the colored mixture was measured at a fixed wavelength of 540 nm. The absorbance without sample solution (blank) and control (buffer and standard drug sample) was measured at 540 nm. The α-amylase inhibition efficiency was validated using the following equation:2 [drawing 2]

MTT cell viability assay = format: cell-based; details: mouse, RAW 264.7 macrophage cells, control 100
Experimental: (§2) The toxicity of the molecule was investigated by the MTT cell viability assay employing RAW macrophage cells. For this study, two lead compounds, 2b and 2e, were screened based on the in vitro results. […] (The OD values in Tables S6 and S7)
(§3) The MTT ((3-(4,5-Dimethylthiazol-2-yl)-2,5-Diphenyltetrazolium Bromide)) assay was employed to determine viability for the synthesized potent compounds 2b and 2e; the cell viability results portray the compounds’ cytotoxicity. The assay was conducted on RAW macrophage cells (RAW 264.7) with various dilutions of 2b and 2e (10, 20, 30, 40, and 50 µM). The results were confirmed with a control.

[3] = test system: RAW macrophage cells (RAW 264.7); experiment: MTT cell viability assay; format: cell-based; details: RAW macrophage cells
Experimental: as §2, §3

Row | IC50 [1] | IC50 [2] | α-Amylase Inhibition % (α-amylase (EC.3.2.1.1); 2 µg) | α-Amylase Inhibition % (α-amylase (EC.3.2.1.1); 4 µg) | SMILES | inhibition at 20 µM (human RBC) | inhibition at 40 µM (human RBC) | inhibition at 60 µM (human RBC) | inhibition at 80 µM (human RBC) | inhibition at 100 µM (human RBC) | IC50 (human RBC) | DPPH Inhibition % ([1]; 20 µM) | DPPH Inhibition % ([1]; 40 µM) | DPPH Inhibition % ([1]; 60 µM) | DPPH Inhibition % ([1]; 80 µM) | DPPH Inhibition % ([1]; 100 µM) | ABTS Inhibition % ([2]; 20 µM) | ABTS Inhibition % ([2]; 40 µM) | ABTS Inhibition % ([2]; 60 µM) | ABTS Inhibition % ([2]; 80 µM) | ABTS Inhibition % ([2]; 100 µM) | also measured
1 | 52.09 ± 0.15 µM | 45.63 ± 0.19 µM | 86.09% | 77.3% | O=C(NCc1ccc2c(c1)OCO2)c1cccnc1 [Compound 2e, N-(Benzo[1,3]dioxol-5-ylmethyl)nicotinamide] | 33.6% | 42.8% | 43% | 48.2% | 60% | 14.1 ± 0.15 µM | 29.2% | 47.1% | 49.2% | 55.8% | 59% | 23.4% | 27.9% | 29.3% | 35.4% | 43% | α-Amylase Inhibition % (α-amylase (EC.3.2.1.1); 6 µg): 74.08%; α-Amylase Inhibition % (α-amylase (EC.3.2.1.1); 8 µg): 72.76%; α-Amylase Inhibition % (α-amylase (EC.3.2.1.1); 10 µg): 56.22%; IC50 (α-amylase (EC.3.2.1.1)): 5.17 µM; viability at 10 µM (MTT cell viability assay; 10 µM): 89.1%; viability at 20 µM (MTT cell viability assay; 20 µM): 81.7%; viability at 30 µM (MTT cell viability assay; 30 µM): 74.8%; viability at 40 µM (MTT cell viability assay; 40 µM): 65.1%; viability at 50 µM (MTT cell viability assay; 50 µM): 56.4%; Toxicity, outcome of the MTT cell viability assay (in words) [3]: viable for the cell line
2 | 79.62 ± 0.14 µM | 88.03 ± 0.17 µM | 74.81% | 74.52% | CCOc1ccc2nc(NC(=O)c3cccnc3)sc2c1 [Compound 2k, N-(6-ethoxybenzothiazol-2-yl) nicotinamide] | 48.6% | 55% | 66.8% | 74.5% | 87.5% | 25.86 ± 0.23 µM | 8.89% | 33.34% | 40.65% | 49.83% | 52.31% | 37.6% | 41.8% | 46.3% | 47.9% | 55.8% | α-Amylase Inhibition % (α-amylase (EC.3.2.1.1); 6 µg): 69.98%; α-Amylase Inhibition % (α-amylase (EC.3.2.1.1); 8 µg): 69.69%; α-Amylase Inhibition % (α-amylase (EC.3.2.1.1); 10 µg): 55.63%; IC50 (α-amylase (EC.3.2.1.1)): 5.06 µM

— article PMC12494831, “Discovery of new pyridine 3-carboxylic acid-based pharmacophores as dual anti-inflammatory and anti-hyperglycemic agents” (Scientific Reports, 2025)
